Data: the NIST ThermoML archive (doi:10.1021/je049691v)
± gives the expanded uncertainty stated by the source.

Details: 101.33 kPa, Liquid, Vibrating tube method

| Compound | mass density (297.15 K) [kg/m3] | mass density (298.15 K) [kg/m3] |
| --- | --- | --- |
| NCCO [2-aminoethan-1-ol] | 1012.94 ± 0.13 | – |
| CO [methanol] | – | 786.58 ± 0.13 |
